Measured values as given in ChEMBL document CHEMBL4507319 (2021).

Assays:
[1] = target: Mitogen-activated protein kinase kinase kinase 10 (Homo sapiens) (UniProt Q02779); assay: MLK2(h) Eurofins kinase panel; details: Compound concentration 1.0 uM
[2] = target: MAP kinase-activated protein kinase 3 (Homo sapiens) (UniProt Q16644); assay: MAPKAP-K3(h) Eurofins kinase panel; details: Compound concentration 1.0 uM
BXPC-3 = assay: BxPC3 cell line Proliferation assay; assay type: functional, Homo sapiens; details: time 3 day
LS174T = assay: LS-174T cell line Proliferation assay; assay type: functional, Homo sapiens; details: time 3 day
[3] = target: SRSF protein kinase 3 (Homo sapiens) (UniProt Q9UPE1); assay: MSSK1(h) Eurofins kinase panel; details: Compound concentration 1.0 uM
[4] = target: T1, Serine/threonine-protein kinase Nek11 (Homo sapiens) (UniProt Q8NG66); assay: NEK11(h) Eurofins kinase panel; details: Compound concentration 1.0 uM
T1 sequence (whole entry): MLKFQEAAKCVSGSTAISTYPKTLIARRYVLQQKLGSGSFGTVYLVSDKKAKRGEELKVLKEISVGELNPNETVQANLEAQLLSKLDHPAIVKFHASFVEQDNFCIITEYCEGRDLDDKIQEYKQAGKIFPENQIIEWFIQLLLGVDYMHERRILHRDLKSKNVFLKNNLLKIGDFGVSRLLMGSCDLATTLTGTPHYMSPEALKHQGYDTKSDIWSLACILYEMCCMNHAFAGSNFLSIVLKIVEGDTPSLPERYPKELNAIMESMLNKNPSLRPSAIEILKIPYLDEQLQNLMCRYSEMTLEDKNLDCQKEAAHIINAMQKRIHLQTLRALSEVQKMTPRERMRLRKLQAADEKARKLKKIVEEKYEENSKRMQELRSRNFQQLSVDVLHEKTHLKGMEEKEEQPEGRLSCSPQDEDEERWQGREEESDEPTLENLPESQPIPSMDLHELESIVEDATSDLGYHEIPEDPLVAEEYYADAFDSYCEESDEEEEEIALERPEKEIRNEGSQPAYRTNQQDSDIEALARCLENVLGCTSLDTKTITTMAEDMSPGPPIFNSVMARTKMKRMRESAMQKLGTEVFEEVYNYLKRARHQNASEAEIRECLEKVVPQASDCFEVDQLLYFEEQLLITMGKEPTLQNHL

[5] = target: 5'-AMP-activated protein kinase catalytic subunit alpha-1 (Homo sapiens, UniProt Q13131)
[6] = target: T2, Homeodomain-interacting protein kinase 4 (Homo sapiens) (UniProt Q8NE63); assay: HIPK4(h) Eurofins kinase panel; details: Compound concentration 1.0 uM
T2 sequence (whole entry): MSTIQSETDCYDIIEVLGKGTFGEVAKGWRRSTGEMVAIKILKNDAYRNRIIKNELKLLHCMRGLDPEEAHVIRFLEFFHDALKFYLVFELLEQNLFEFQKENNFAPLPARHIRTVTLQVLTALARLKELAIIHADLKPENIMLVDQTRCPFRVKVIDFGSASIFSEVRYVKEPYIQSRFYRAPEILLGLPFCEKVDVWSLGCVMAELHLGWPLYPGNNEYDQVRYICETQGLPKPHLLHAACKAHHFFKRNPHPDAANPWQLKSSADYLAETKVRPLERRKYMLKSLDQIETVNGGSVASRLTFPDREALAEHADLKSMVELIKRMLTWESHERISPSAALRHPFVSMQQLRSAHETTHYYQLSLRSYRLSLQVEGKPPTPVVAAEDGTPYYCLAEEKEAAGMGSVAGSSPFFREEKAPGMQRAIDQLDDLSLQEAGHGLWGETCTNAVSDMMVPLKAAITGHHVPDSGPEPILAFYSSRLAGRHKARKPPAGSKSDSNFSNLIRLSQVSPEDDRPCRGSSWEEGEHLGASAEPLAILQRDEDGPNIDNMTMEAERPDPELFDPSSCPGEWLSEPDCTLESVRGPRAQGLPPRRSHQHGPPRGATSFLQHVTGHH

[7] = target: Serine/threonine-protein kinase SIK1 (Homo sapiens) (UniProt P57059); assay: SIK(h) Eurofins kinase panel; details: Compound concentration 1.0 uM
[8] = target: Mitogen-activated protein kinase 8 (Homo sapiens) (UniProt P45983); assay: JNK1alpha1(h) Eurofins kinase panel; details: Compound concentration 1.0 uM
[9] = target: Serine/threonine-protein kinase PAK 4 (Homo sapiens) (UniProt O96013); assay: PAK4(h) Eurofins kinase panel; details: Compound concentration 1.0 uM
[10] = target: T3, Ribosomal protein S6 kinase alpha-1 (Homo sapiens, UniProt Q15418)
[11] = target: T3, Ribosomal protein S6 kinase alpha-1; details: Compound concentration 1.0 uM
[12] = target: T4, Tyrosine-protein kinase ZAP-70 (Homo sapiens) (UniProt P43403); assay: ZAP-70(h) Eurofins kinase panel; details: Compound concentration 1.0 uM
T4 sequence (whole entry): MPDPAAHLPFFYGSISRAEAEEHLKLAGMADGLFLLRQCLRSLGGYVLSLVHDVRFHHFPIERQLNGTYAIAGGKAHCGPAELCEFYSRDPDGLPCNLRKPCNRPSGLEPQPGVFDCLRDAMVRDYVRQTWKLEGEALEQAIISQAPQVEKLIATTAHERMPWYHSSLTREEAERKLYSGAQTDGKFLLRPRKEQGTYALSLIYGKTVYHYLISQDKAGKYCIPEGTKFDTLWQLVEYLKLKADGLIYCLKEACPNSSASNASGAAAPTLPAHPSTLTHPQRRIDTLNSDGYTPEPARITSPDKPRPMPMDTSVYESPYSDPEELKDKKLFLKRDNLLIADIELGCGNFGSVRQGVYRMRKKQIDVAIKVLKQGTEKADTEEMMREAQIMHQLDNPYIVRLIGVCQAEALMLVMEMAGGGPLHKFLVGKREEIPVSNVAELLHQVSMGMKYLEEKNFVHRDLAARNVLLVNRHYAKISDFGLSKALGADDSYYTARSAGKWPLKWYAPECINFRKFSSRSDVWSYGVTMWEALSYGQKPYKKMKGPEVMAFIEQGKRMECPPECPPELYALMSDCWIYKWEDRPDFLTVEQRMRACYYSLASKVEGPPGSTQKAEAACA

[13] = target: Macrophage colony-stimulating factor 1 receptor (Homo sapiens) (UniProt P07333); assay: Fms(h) Eurofins kinase panel; details: Compound concentration 1.0 uM
[14] = target: Serine/threonine-protein kinase PRP4 homolog (Homo sapiens) (UniProt Q13523); assay: PRP4(h) Eurofins kinase panel; details: Compound concentration 1.0 uM
[15] = target: Transient receptor potential cation channel subfamily M member 7 (Homo sapiens) (UniProt Q96QT4); assay: ChaK1(h) Eurofins kinase panel; details: Compound concentration 1.0 uM
[16] = target: Calcium/calmodulin-dependent protein kinase kinase 2 (Homo sapiens) (UniProt Q96RR4); assay: CaMKK2(h) Eurofins kinase panel; details: Compound concentration 1.0 uM
Sequence of Calcium/calmodulin-dependent protein kinase kinase 2 (Homo sapiens) (Q96RR4 2-588 limits assumed): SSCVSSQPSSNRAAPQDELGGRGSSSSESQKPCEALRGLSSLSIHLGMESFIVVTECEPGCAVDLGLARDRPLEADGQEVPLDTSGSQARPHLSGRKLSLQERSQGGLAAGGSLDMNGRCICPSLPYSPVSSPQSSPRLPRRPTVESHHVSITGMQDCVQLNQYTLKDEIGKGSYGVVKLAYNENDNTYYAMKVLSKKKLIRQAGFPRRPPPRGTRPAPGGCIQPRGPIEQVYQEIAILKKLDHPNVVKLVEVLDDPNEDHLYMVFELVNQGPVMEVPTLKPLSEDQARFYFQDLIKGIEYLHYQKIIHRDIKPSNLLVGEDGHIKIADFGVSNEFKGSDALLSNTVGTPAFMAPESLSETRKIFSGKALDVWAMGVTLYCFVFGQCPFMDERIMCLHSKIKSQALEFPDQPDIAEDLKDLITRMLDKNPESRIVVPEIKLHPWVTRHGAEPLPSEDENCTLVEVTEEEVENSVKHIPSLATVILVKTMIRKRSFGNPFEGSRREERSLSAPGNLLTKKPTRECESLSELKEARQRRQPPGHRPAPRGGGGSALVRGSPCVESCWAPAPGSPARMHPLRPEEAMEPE

T3 sequence (Q15418 whole entry): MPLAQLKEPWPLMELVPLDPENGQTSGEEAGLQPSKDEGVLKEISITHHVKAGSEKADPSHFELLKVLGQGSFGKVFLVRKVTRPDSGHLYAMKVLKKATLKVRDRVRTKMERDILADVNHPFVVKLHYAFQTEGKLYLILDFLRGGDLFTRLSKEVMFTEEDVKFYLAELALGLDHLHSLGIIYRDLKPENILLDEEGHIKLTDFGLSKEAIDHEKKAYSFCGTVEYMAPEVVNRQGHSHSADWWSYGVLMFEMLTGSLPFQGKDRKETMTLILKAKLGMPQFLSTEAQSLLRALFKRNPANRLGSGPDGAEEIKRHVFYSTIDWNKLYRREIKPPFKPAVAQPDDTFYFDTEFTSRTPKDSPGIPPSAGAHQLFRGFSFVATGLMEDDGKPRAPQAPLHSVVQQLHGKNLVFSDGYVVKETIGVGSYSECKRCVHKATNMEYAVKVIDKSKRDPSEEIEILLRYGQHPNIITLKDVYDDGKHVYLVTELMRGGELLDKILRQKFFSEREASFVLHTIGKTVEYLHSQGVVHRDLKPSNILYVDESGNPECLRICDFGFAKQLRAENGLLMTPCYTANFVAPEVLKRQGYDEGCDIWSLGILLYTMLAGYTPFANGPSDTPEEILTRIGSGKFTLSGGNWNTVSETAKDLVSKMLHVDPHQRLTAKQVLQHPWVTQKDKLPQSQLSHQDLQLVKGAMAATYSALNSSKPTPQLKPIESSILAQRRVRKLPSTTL
Sequence of Mitogen-activated protein kinase kinase kinase 10 (Homo sapiens) (Q02779 whole entry, looked up): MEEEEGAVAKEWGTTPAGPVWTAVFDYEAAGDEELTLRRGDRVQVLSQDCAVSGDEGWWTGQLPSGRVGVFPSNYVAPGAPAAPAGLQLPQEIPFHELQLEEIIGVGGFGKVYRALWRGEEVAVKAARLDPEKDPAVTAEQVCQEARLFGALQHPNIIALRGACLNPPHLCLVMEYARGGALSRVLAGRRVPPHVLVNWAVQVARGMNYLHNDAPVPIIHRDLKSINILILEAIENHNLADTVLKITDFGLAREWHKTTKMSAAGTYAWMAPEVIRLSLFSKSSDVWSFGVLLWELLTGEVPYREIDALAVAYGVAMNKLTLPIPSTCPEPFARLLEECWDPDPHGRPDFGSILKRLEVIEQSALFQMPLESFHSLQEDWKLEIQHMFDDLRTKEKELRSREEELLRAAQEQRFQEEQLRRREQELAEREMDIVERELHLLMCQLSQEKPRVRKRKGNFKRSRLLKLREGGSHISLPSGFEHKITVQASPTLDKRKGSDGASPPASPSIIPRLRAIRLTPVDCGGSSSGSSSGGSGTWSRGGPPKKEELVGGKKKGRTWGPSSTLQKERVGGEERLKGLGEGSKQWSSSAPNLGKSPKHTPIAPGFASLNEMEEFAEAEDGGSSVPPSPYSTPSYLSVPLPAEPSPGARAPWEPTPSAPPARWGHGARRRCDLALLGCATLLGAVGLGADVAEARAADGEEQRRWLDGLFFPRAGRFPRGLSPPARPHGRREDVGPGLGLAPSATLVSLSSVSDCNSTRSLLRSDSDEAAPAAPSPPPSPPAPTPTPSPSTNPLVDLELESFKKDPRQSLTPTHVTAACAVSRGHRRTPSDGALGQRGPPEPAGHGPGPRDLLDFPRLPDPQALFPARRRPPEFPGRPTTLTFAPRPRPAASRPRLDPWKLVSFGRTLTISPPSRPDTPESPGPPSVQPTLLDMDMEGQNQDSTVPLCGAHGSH
Sequence of 5'-AMP-activated protein kinase catalytic subunit alpha-1 (Q13131 whole entry): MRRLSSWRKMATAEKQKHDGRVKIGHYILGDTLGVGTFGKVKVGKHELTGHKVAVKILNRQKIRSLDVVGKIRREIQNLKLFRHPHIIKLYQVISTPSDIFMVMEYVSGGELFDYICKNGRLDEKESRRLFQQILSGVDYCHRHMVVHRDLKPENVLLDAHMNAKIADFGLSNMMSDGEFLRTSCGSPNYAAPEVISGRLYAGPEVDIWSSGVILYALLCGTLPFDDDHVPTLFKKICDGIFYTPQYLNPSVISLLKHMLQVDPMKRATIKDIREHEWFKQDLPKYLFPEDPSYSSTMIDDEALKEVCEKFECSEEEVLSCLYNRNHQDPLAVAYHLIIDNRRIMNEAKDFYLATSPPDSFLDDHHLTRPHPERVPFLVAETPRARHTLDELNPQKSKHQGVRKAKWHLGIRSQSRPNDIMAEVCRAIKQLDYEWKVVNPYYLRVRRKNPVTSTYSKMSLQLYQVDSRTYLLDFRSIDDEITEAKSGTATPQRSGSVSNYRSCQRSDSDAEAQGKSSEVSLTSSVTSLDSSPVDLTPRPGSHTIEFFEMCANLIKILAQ
Sequence of Macrophage colony-stimulating factor 1 receptor (Homo sapiens) (P07333 whole entry): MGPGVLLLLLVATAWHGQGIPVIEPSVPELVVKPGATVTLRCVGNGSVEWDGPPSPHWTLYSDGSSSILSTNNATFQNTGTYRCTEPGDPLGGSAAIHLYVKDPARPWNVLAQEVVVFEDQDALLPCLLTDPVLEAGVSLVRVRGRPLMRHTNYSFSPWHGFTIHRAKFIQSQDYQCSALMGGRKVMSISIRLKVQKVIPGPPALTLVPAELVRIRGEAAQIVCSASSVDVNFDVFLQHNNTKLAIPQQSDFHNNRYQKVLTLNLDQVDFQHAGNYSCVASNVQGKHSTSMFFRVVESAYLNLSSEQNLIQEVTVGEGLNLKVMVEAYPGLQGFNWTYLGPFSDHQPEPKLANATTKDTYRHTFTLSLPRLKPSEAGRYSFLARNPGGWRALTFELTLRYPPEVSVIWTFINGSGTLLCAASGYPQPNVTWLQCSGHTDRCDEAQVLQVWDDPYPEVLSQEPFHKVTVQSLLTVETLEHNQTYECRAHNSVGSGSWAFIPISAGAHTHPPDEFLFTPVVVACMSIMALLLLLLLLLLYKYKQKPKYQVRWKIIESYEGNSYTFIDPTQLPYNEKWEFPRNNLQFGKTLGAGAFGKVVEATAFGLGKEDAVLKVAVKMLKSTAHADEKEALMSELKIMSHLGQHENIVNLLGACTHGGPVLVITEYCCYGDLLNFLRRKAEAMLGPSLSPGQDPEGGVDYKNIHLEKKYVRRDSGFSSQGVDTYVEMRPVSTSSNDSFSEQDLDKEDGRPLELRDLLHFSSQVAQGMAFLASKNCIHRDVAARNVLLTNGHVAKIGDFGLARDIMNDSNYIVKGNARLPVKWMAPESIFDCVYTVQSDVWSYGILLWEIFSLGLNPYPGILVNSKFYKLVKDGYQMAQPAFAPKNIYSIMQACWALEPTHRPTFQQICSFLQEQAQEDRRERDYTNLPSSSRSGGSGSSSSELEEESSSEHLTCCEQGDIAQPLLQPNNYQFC
Sequence of Serine/threonine-protein kinase PRP4 homolog (Homo sapiens) (Q13523 whole entry): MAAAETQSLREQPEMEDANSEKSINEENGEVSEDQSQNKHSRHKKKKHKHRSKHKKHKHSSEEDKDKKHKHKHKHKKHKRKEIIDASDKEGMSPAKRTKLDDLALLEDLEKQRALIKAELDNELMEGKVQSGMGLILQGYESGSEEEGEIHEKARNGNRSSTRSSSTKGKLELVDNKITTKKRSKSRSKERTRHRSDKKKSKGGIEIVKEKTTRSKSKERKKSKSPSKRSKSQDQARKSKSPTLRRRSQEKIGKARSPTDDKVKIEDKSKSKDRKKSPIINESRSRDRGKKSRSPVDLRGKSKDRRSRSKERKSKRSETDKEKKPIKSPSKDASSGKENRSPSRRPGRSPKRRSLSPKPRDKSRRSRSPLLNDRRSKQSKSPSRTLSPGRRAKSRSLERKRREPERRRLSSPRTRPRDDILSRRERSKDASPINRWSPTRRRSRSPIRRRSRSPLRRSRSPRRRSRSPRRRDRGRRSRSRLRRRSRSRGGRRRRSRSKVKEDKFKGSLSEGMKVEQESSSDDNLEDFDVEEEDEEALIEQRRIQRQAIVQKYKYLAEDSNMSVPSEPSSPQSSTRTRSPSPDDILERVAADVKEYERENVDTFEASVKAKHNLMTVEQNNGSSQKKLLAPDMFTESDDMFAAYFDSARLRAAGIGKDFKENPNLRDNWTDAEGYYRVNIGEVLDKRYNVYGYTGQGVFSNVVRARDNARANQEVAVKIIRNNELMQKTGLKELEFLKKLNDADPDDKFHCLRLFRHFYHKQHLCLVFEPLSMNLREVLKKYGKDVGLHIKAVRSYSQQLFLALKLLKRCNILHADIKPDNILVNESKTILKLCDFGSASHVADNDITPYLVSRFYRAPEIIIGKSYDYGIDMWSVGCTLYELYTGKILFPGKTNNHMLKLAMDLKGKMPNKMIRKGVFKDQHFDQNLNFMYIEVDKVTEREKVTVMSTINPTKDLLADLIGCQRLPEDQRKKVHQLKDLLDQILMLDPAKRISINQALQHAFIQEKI

With `CCc1ccccc1C(=O)Nc1n[nH]c2c(C)c(F)c(C3C(C#N)=C(C)N(C)C(C)=C3C#N)cc12` [BAY-3827] the % residual kinase activity [1] was 94%, the % residual kinase activity [2] was 106% and the “Cell Proliferation IC50” value (BXPC-3) was 11.4 µM. The “Cell Proliferation IC50” value (LS174T) was over 30 µM, the % residual kinase activity [3] was 39% and the % residual kinase activity [4] was 103%. It also gave an IC50 [5] of 0.01 µM, a % residual kinase activity [6] of 105% and a % residual kinase activity [7] of 86%. The % residual kinase activity [8] was 72%, the % residual kinase activity [9] was 91% and the IC50 [10] was 0.009 µM. It also gave a % residual kinase activity [11] of 7%, a % residual kinase activity [12] of 119% and a % residual kinase activity [13] of 99%. It also gave a % residual kinase activity [14] of 96%, a % residual kinase activity [15] of 100% and a % residual kinase activity [16] of 101%.
